{
  "source": "patent US11653689B2",
  "about": "“Probiotic Bifidobacterium breve strain and compositions comprising said strain” (Chr. Hansen A/S, priority 2018, dated 2023)",
  "key": {"[1]": {"assay": "Co-incubation of DSM 32356 with acetylsalicylic acid, metabolite analysis", "protocol": "The overall aim with this experiment was to explore if Bifidobacterium breve DSM 32356 influenced the degradation of aspirin in vitro.\nTo cover a wide concentration range of acetylsalicylic acid the following concentrations were used: 20, 10, 5, 2.5, 1.25, 0.625, 0.3125 and 0 mM of acetylsalicylic acid.\nThe next day the grown culture was reinoculated in fresh MRS with 0.05% CyHCl (100 μL bacteria suspension in 10 mL MRS with 0.05% CyHCl). Six dilution rows were generated by transferring 1 mL of mixed inoculated culture to 10 mL MRS with 0.05% CyHCl. This was repeated 5 times. The bifidobacteria were cultured anaerobically overnight at 37° C. On the day of incubation with acetylsalicyl acid bacterial growth was evaluated by measuring optical density at 600 nm (OD600 nm) and cultures representing late exponential/early stationary phase were selected. […]\nNine mL of each acetylsalicylic acid solution (22.2, 11.1, 5.6, 2.8, 1.39, 0.69 and 0.35 mM) and the control condition (0 mM) were added to different sterile tubes in duplicate. […] After incubation, pH was measured in each vial and the solutions were sterile filtered and frozen at −80° C. until metabolite analysis. […]"}, "[2]": {"test_system": "cyclooxygenase (COX)", "assay": "Serum prostaglandin E2 and thromboxane B2 by LC-MS/MS in trial subjects", "format": "in vivo, human", "details": "fasting serum, visit 2 to 7, 300 mg aspirin daily", "protocol": "As exploratory endpoints, post-hoc intervention effects on prostaglandin E2 (PGE2) and thromboxane B2 (TBX2) in serum samples downstream of cyclooxygenase (COX) were studied.\nAfter unblinding, a post-hoc lab analysis was performed on 2 biolipids PGE2 and TXB2 downstream from the COX enzyme in fasting serum samples obtained during visit 2 to visit 7. […] J. Chromatogr. […] Ambiotis were kept blinded for intervention during analyses and analyses were performed in single measurements."}, "[3]": {"test_system": "upper GI bleeding", "details": "in vivo; cited from earlier work"}, "[4]": {"test_system": "Caco-2 cell layer", "details": "cited from earlier work"}},
  "data": [
    {"compound": "CC(=O)Oc1ccccc1C(=O)O", "note": "[acetylsalicylic acid (aspirin), acetylsalicylic acid]", "values": [
      {"measurement": "conversion of acetylsalicylic acid to salicylic acid", "setting": "[1]; 24 hours, 37° C., with DSM 32356 or acid-adjusted to pH 4.5, MRS", "result": "most of the acetylsalicylic acid was converted to salicylic acid"},
      {"measurement": "growth of DSM 32356", "setting": "[1]; increasing concentrations of aspirin", "result": "inhibited bacterial growth"},
      {"measurement": "serum PGE2 concentrations", "setting": "[2]", "result": "robust inhibition"},
      {"measurement": "serum TXB2 concentrations", "setting": "[2]", "result": "robust inhibition"},
      {"measurement": "increased risk of upper GI bleeding", "setting": "[3]", "result": "2- to 4 fold"},
      {"measurement": "ZO-1 expression", "setting": "[4]", "result": "decreased"},
      {"measurement": "flux of fluorescein isothiocyanate-conjugated dextran", "setting": "[4]", "result": "increases flux"},
      {"measurement": "transepithelial electrical resistance (TEER)", "setting": "[4]", "result": "decreased"}
    ]}
  ]
}
